Source: patent US20240285660A1, “COMPOSITION FOR WOUND RELIEF AND INHIBITING A PHD PROTEIN AND METHODS OF TREATMENT” (Curapep LLC, priority 2021, published 2024)
“And” between values parts separate entries of the source, which are not always exact repeats. Equal values may be shown once.

System: HIF1-a protein in L929 cells
Assay: In vitro HIF stabilization (HIF1-a ELISA, normalized to DNA content)
Type: cell-based
Details: for level of HIF-1a compared to the negative control cells: alone, 0.01, 0.1, 1, 10 and 100 micromolar, L929 cells

Structure (SMILES)	level of HIF-1a compared to the negative control cells	HIF content increase (normalized to the DNA content) compared to the negative control
O=c1c(-c2ccc(O)cc2)coc2c([C@@H]3O[C@H](CO)[C@@H](O)[C@H](O)[C@H]3O)c(O)ccc12 [Puerarin, 7-hydroxy-3-(4-hydroxyphenyl)-8-[(2S,3R,4R,5S,6R)-3,4,5-trihydroxy-6-(hydroxymethyl)oxan-2-yl]chromen-4-one]	either a decrease of HIF-1a or the same level of HIF-1a	
O=c1cc(-c2ccccc2)oc2ccccc12 [Flavone, 2-phenylchromen-4-one]	either a decrease of HIF-1a or the same level of HIF-1a	
[Cl-].[Cl-].[Co+2] [CoCl2]		2.21 fold and 2.16 fold
